From ChEMBL document CHEMBL5584254, “Identification of N-(((1S,3R,5S)-adamantan-1-yl)methyl)-3-((4-chlorophenyl)sulfonyl)benzenesulfonamide as novel Nav1.8 inhibitor with analgesic profile” (Bioorg Med Chem Lett, 2024) come the findings set out here.

As a reminder, the inhibition is the change of the read-out against control, counted positive when it falls.

The structures appear in SMILES notation. Active and inactive are the calls of the source.

One data set deals with HEK293. Description: Binding affinity to Nav1.8 (unknown origin) expressed in HEK293 cells assessed as retention time by cell membrane chromatography analysis. The class given is cell membranes. The conditions noted are these: Homo sapiens.
The species named for a further data set is Homo sapiens. Description: Inhibition of Nav1.8 (unknown origin) at 10 uM under resting state by whole-cell patch clamp analysis relative to control. (In general: In patch-clamp work, channel activity is measured electrically.)
Data set [1] relates to Mus musculus. Description: Analgesic activity in CFA-induced inflammatory pain mouse model assessed as increase in mechanical pain threshold at 10 mM, ip measured within 5 hrs by von frey test. The data set is classed as functional, organism-based.
Data set [2] has as its system Mus musculus. Description: Analgesic activity in CFA-induced inflammatory pain mouse model assessed as inhibition of mechanical hyperalgesia by measuring delta AUC at 10 mM, ip by von frey test. The class given is functional, organism-based.
Data set [3] has as its system Mus musculus. In words: Analgesic activity in CFA-induced inflammatory pain mouse model assessed as effect on intensity of pain relief by measuring delta AUC at 10 mM, ip by von frey test. The data set is classed as functional, organism-based.
For data set [4], the system named is Mus musculus. Description: Analgesic activity in CFA-induced inflammatory pain mouse model assessed as increase in mechanical pain threshold at 10 mM, ip measured upto 5 hrs by von frey test. The data set is classed as functional, organism-based.
The test system of data set [5] is Mus musculus. In words: Analgesic activity in CFA-induced inflammatory pain mouse model assessed as effect on duration of pain relief by measuring delta AUC at 10 mM, ip by von frey test. The class given is functional, organism-based.
For another data set, the system named is Nav1.8 (SCN10A). Description: Inhibition of Nav1.8 (unknown origin) at 10 uM under half […] state by whole-cell patch clamp analysis relative to control. The conditions noted are these: human.

`O=C(Cc1cccc2ccccc12)NN1C(=O)C2C3C=CC(C3)C2C1=O` (stereo not given): the Retention time in the data set with HEK293 worked out at 1.9 min.
Regarding `O=C(Cc1ccccc1)N/N=C/c1c2ccccc2cc2ccccc12`, the Retention time in the data set on HEK293 was 0.4 min.
Regarding `CCC1(C)Oc2ccc(NS(=O)(=O)c3ccc4c(c3)Cc3ccccc3-4)cc2O1` (stereo not given), in the data set on HEK293, the Retention time is 0.4 min.
On to `Cc1ccccc1C1CC(=O)C2=C(C1)NC(=O)C(CC(=O)Nc1cccc(Cl)c1C)C2` (stereo not given), for which the Retention time in the data set with HEK293 came out at 5.76 min. The same compound showed an inhibition in the data set listed under Homo sapiens of 6.49%. Besides, the result in the data set on Mus musculus [1], in the data set on Mus musculus [2], in the data set with Mus musculus [3], in the data set on Mus musculus [4] and in the data set with Mus musculus [5] was Active. In the data set with Nav1.8 (SCN10A), this compound yielded an inhibition at 10 µM of 11.1%.
For the compound `Cc1cc(OCC(=O)Nc2ccc(C(C)(C)C)cc2)c2c3c(c(=O)oc2c1)CCC3`, in the data set with HEK293, the Retention time stood at 0.4 min.
`Cc1cc(F)ccc1Oc1cc(C(F)(F)F)ccc1C(=O)Nc1cc[nH]c(=O)c1`: the Retention time in the data set on HEK293 came to 8.56 min. The outcome in the data set on Mus musculus [1] was inactive. In addition, the result in the data set with Mus musculus [4] was Active.
Regarding `Cc1ccc(CS(=O)(=O)c2cn(CC(=O)Nc3ccc(F)cc3F)c3ccccc23)cc1`, in the data set with HEK293, the Retention time worked out at 14.7 min. In the data set with Mus musculus [4], the outcome was Active.
For `Cc1ccc(C)c(Cn2cccc2CNC(=O)NC23CC4CC(CC(C4)C2)C3)c1`, in the data set on HEK293, the Retention time came out at 0.4 min.
`CC1Oc2ccccc2CC1/C=C1/Oc2cc(OC(=O)c3ccc4c(c3)OCO4)ccc2C1=O` (stereo not given): the Retention time in the data set on HEK293 was found to be 0.4 min.
Same read-out and setting: the result for `COc1ccc(/C=N/NC(=O)NC23CC4CC(C2)CC(c2ccc(C)cc2)(C4)C3)cc1` reads 0.4 min.
On to `COc1cc(NC(=O)c2ccc(-c3ccc(Cl)cc3)o2)cc(OC)c1`, for which the Retention time with HEK293 stood at 120 min. This compound came in with an inhibition in the data set listed under Homo sapiens of 62.1%.
As to `CN1c2ccc(F)cc2C(C)(C)C12C=Cc1cc([N+](=O)[O-])ccc1S2` (stereo not given), the Retention time with HEK293 came out at 0.4 min.
Consider `Cc1cc2oc(=O)cc(C)c2c(O)c1C1=NNC(c2ccc3c(c2)OCO3)C1` (stereo not given), for which the Retention time in the data set on HEK293 turned out to be 0.4 min.
As for `O=S(=O)(NCC12CC3CC(CC(C3)C1)C2)c1cccc(S(=O)(=O)c2ccc(Cl)cc2)c1`, the Retention time in the data set with HEK293 was 56 min. In the data set filed under Homo sapiens, the inhibition came to 14.3%. Further, the outcome in the data set with Mus musculus [1], with Mus musculus [2], in the data set on Mus musculus [3], with Mus musculus [4] and in the data set with Mus musculus [5] was Active. This compound showed an inhibition at 10 µM in the data set on Nav1.8 (SCN10A) of 63.8%.
`O=S(=O)(NCC12CC3CC(CC(C3)C1)C2)c1ccc(Cl)c2ccccc12`: the Retention time in the data set with HEK293 turned out to be 0.4 min.
Consider `O=[N+]([O-])c1cccc(C2Oc3ccccc3C3CC(c4ccc(F)cc4)=NN32)c1` (stereo not given), for which the Retention time in the data set with HEK293 was found to be 0.4 min.
Take `COc1cccc(C2C3=C(CC4=C2C(=O)CC(C)(C)C4)CC(C)(C)CC3=O)c1OCC(=O)O`: the Retention time with HEK293 was 1.2 min.
